Reference: ChEMBL document CHEMBL5223082, “Alkyl-Aryl-Vancomycins: Multimodal Glycopeptides with Weak Dependence on the Bacterial Metabolic State” (J Med Chem, 2021)
Active and inactive are the calls of the source. The calls are words filed in the database; no cut-off is given here.

Key:
Staphylococcus aureus [1] = experiment: Antibacterial activity against Methicillin-resistant Staphylococcus aureus ATCC 33591 assessed as inhibition of bacterial growth incubated for 18 to 24 hrs by CLSI microbroth dilution method; type: functional; conditions: time 18-24 hrs
Staphylococcus aureus [2] = experiment: Antibacterial activity against Vancomycin-resistant Staphylococcus aureus 1 assessed as inhibition of bacterial growth incubated for 18 to 24 hrs by CLSI microbroth dilution method; type: functional; conditions: time 18-24 hrs
Staphylococcus aureus [3] = experiment: Antibacterial activity against Vancomycin-resistant Staphylococcus aureus 4 assessed as inhibition of bacterial growth incubated for 18 to 24 hrs by CLSI microbroth dilution method; type: functional; conditions: time 18-24 hrs
Staphylococcus aureus [4] = experiment: Antibacterial activity against Vancomycin-resistant Staphylococcus aureus 12 assessed as inhibition of bacterial growth incubated for 18 to 24 hrs by CLSI microbroth dilution method; type: functional; conditions: time 18-24 hrs
Enterococcus [5] = experiment: Antibacterial activity against Vancomycin-resistant Enterococci NR30909 assessed as inhibition of bacterial growth incubated for 18 to 24 hrs by CLSI microbroth dilution method; type: functional; conditions: time 18-24 hrs
Enterococcus [6] = experiment: Antibacterial activity against Vancomycin-resistant Enterococci ATCC 51575 assessed as inhibition of bacterial growth incubated for 18 to 24 hrs by CLSI microbroth dilution method; type: functional; conditions: time 18-24 hrs
Enterococcus [7] = experiment: Antibacterial activity against Vancomycin-resistant Enterococci ATCC 51559 assessed as inhibition of bacterial growth incubated for 18 to 24 hrs by CLSI microbroth dilution method; type: functional; conditions: time 18-24 hrs
Staphylococcus aureus [8] = experiment: Potency index, ratio of Vancomycin MIC to test compound MIC for antibacterial activity against Vancomycin-resistant Staphylococcus aureus 12; type: functional
Enterococcus [9] = experiment: Potency index, ratio of Vancomycin MIC to test compound MIC for antibacterial activity against Vancomycin-resistant Enterococci NR30903; type: functional, NR 30903
Enterococcus [10] = experiment: Potency index, ratio of Vancomycin MIC to test compound MIC for antibacterial activity against Vancomycin-resistant Enterococci NR30909; type: functional, NR 30909
Enterococcus [11] = experiment: Potency index, ratio of Vancomycin MIC to test compound MIC for antibacterial activity against Vancomycin-resistant Enterococci ATCC 51559; type: functional
[12] = Induction of hemolysis in human erythrocytes incubated for 1 hr by microtiter plater reader analysis; type: toxicity, cell-based, Erythrocyte
Staphylococcus aureus [13] = experiment: Bactericidal activity against methicillin-resistant Staphylococcus aureus ATCC 33591 assessed as log reduction in bacterial colonies incubated for 2 hrs in broth solution followed by culturing for 24 hrs on agar plate by spot plating method; type: functional; conditions: time 26 hrs
Staphylococcus aureus [14] = experiment: Bactericidal activity against methicillin-resistant Staphylococcus aureus ATCC 33591 assessed as log reduction in bacterial colonies incubated for 4 hrs in broth solution followed by culturing for 24 hrs on agar plate by spot plating method; type: functional; conditions: time 28 hrs
Staphylococcus aureus [15] = experiment: Bactericidal activity against methicillin-resistant Staphylococcus aureus ATCC 33591 assessed as eradication of viable bacterial cells at 4XMIC incubated for 6 hrs in broth solution followed by culturing for 24 hrs on agar plate by spot plating method; type: functional; conditions: time 30 hrs
Enterococcus [16] = experiment: Bactericidal activity against Vancomycin-resistant Enterococci assessed as reduction in bacterial colonies at MIC to 2XMIC incubated for 6 hrs in broth solution followed by culturing for 24 hrs on agar plate by spot plating method; type: functional, organism-based; conditions: time 30.0 hrs
Enterococcus [17] = experiment: Bactericidal activity against Vancomycin-resistant Enterococci assessed as log reduction in bacterial colonies at MIC incubated for 24 hrs in broth solution followed by culturing for 24 hrs on agar plate by spot plating method; type: functional; conditions: time 48 hrs
Enterococcus [18] = experiment: Bactericidal activity against Vancomycin-resistant Enterococci assessed as log reduction in bacterial colonies at 4XMIC incubated for 6 hrs in broth solution followed by culturing for 24 hrs on agar plate by spot plating method; type: functional; conditions: time 30 hrs
Staphylococcus aureus [19] = experiment: Antibacterial activity against Methicillin-resistant Staphylococcus aureus ATCC 33591 assessed as inhibition of bacterial growth preincubated compound with teichoic-acid for 1 hr followed by incubation with bacterial culture for 18 to 24 hrs by CLSI microbroth dilution method; type: functional; conditions: time 19-25 hrs
Cell membrane [20] = experiment: Induction of cytoplasmic membrane depolarization in Methicillin-resistant Staphylococcus aureus ATCC 33591 assessed as increase in fluorescence intensity at 10 uM measured for 35 to 40 mins by DiSC3(5) dye based fluorescence analysis; type: subcellular; conditions: time 35-40 min
Cell membrane [21] = experiment: Induction of cytoplasmic membrane permeabilization in Methicillin-resistant Staphylococcus aureus ATCC 33591 assessed as increase in fluorescence intensity at 10 uM measured for 30 to 40 mins by Propidium iodide staining based fluorescence analysis; type: subcellular; conditions: time 30-40 min
Cell membrane [22] = experiment: Induction of cytoplasmic membrane permeabilization in Vancomycin-resistant Enterococci assessed as increase in fluorescence intensity at 10 uM measured for 30 to 40 mins by Propidium iodide staining based fluorescence analysis; type: subcellular; conditions: Enterococcus, time 30-40 min
Bacillus subtilis = experiment: Antibacterial activity against Bacillus subtilis 168 assessed as inhibition of bacterial growth incubated for 18 hrs by turbidity based analysis; type: functional
[23] = target: T1, Septum site-determining protein MinD (Bacillus subtilis (strain 168)) (UniProt Q01464); experiment: Delocalization of GFP tagged-MinD in Bacillus subtilis 168 at PEC incubated for 15 mins by fluorescence microscopy
T1 sequence (whole entry): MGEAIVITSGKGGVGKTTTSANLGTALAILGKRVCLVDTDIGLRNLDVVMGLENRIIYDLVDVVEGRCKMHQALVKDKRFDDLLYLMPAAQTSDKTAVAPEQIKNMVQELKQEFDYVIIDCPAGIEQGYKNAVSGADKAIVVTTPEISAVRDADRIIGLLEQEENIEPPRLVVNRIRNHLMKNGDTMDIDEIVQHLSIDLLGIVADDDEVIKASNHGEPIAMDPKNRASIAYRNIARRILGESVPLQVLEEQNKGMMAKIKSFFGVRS

[24] = target: T1, Septum site-determining protein MinD (Bacillus subtilis (strain 168)); experiment: Delocalization of GFP tagged-MinD in Bacillus subtilis 168 at MIC incubated for 15 mins by fluorescence microscopy
Cell membrane [25] = experiment: Induction of Cytoplasmic membrane disruption in Bacillus subtilis 168 assessed as proportion of PI-stained cells at PEC incubated for 10 mins by SYTO9/PI staining based fluorescence microscopy; type: subcellular
Staphylococcus aureus [26] = experiment: Antibacterial activity against stationary phase of Methicillin-resistant Staphylococcus aureus ATCC 33591 assessed as log reduction in bacterial colonies at 9 uM incubated for 12 hrs in broth solution followed by incubation on agar plate for 48 hrs by spot plating method; type: functional; conditions: time 60 hrs
Staphylococcus aureus [27] = experiment: Antibacterial activity against Methicillin-resistant Staphylococcus aureus ATCC 33591 persister cells assessed as log reduction in bacterial colonies at 4.5 uM incubated for 12 hrs in broth solution followed by incubation on agar plate for 48 hrs by spot plating method; type: functional; conditions: time 60 hrs
Staphylococcus aureus [28] = experiment: Antibacterial activity against Methicillin-resistant Staphylococcus aureus ATCC 33591 persister cells assessed as log reduction in bacterial colonies at 4.5 uM incubated for 24 hrs in broth solution followed by incubation on agar plate for 48 hrs by spot plating method; type: functional; conditions: time 72 hrs
Staphylococcus aureus [29] = experiment: Antibacterial activity against Methicillin-resistant Staphylococcus aureus ATCC 33591 assessed as inhibition of bacterial growth incubated for 18 to 24 hrs in presence of 50% human plasma by CLSI microbroth dilution method; type: functional; conditions: time 18-24 hrs
[30] = Hepatotoxicity in mouse assessed as plasma ALT level at 12 mg/kg, ip measured after 48 hrs; type: toxicity, organism-based; conditions: in vivo
[31] = Renal toxicity in mouse assessed as plasma creatinine level at 12 mg/kg, ip measured after 48 hrs; type: organism-based; conditions: in vivo
[32] = Renal toxicity in mouse assessed as blood urea nitrogen level at 12 mg/kg, ip measured after 48 hrs; type: organism-based; conditions: in vivo

CCCCCCCCCCNC(=O)C[N+](C)(C)CCCNC(=O)c1ccc(CN[C@@]2(C)C[C@H](O[C@H]3[C@H](Oc4c5cc6cc4Oc4ccc(cc4Cl)[C@@H](O)[C@@H](NC(=O)[C@@H](CC(C)C)NC)C(=O)N[C@@H](CC(N)=O)C(=O)N[C@H]6C(=O)N[C@H]4C(=O)N[C@H](C(=O)N[C@H](C(=O)O)c6cc(O)cc(O)c6-c6cc4ccc6O)[C@H](O)c4ccc(c(Cl)c4)O5)O[C@H](CO)[C@@H](O)[C@@H]3O)O[C@@H](C)[C@H]2O)cc1
MIC (Staphylococcus aureus [1]): 0.9 µM
MIC (Staphylococcus aureus [2]): 1.8 µM
MIC (Staphylococcus aureus [3]): 0.45 µM
MIC (Staphylococcus aureus [4]): 0.9 µM
MIC (Enterococcus [5]): 0.9 µM
MIC (Enterococcus [6]): 3.6 µM
MIC (Enterococcus [7]): 3.6 µM
Ratio (Staphylococcus aureus [8]): 1384
Ratio (Enterococcus [9]): 1384
Ratio (Enterococcus [10]): 1384
Ratio (Enterococcus [11]): 1384
HC50 at 1 h [12]: > 250 µM
Activity (Staphylococcus aureus [13]): 2 log10CFU/ml
Activity (Staphylococcus aureus [14]): 3 log10CFU/ml
Activity (Staphylococcus aureus [15]): 100%
Activity (Enterococcus [16]): inactive
Activity (Enterococcus [17]): 0.7 log10CFU/ml
Activity (Enterococcus [18]): 0.5 log10CFU/ml
MIC (Staphylococcus aureus [19]): 0.9 µM
Activity (Cell membrane [20]): Active
Activity (Cell membrane [21]): Active
Activity (Cell membrane [22]): Active
MIC (Bacillus subtilis): 0.45 µM
Activity [23]: inactive
Activity [24]: 25%
Activity (Cell membrane [25]): 5%
Activity (Staphylococcus aureus [26]): 1.9 log10CFU/ml
Activity (Staphylococcus aureus [27]): 1.6 log10CFU/ml
Activity (Staphylococcus aureus [28]): 3.3 log10CFU/ml
MIC (Staphylococcus aureus [29]): 0.9 µM
Activity [30]: 62.25 U/L
Activity [31]: 0.38 mg/dL
Activity [32]: 20.7 mg/dL
